# Source: patent US7488832B2, “Azolylacylguanidines as β-secretase inhibitors” (Wyeth, priority 2005, dated 2009)
# Biological target: human BACE1 (Homo sapiens, UniProt P56817)
# Assay: Fluorescent kinetic assay, human BACE1 (FRET peptide substrate WABC-6);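 also: fluorescence monitored at excitation 320 nm and emission 420 nm over 30 min, with the substrate cleavage rate taken as the linear slope of the signal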
# Format: biochemical
# Conditions: fluorescent kinetic assay, 25 μM substrate WABC-6, pH 4.5, room temperature; read-out: IC50 (μM) BACE 1
# human BACE1, sequence (P56817 46-501): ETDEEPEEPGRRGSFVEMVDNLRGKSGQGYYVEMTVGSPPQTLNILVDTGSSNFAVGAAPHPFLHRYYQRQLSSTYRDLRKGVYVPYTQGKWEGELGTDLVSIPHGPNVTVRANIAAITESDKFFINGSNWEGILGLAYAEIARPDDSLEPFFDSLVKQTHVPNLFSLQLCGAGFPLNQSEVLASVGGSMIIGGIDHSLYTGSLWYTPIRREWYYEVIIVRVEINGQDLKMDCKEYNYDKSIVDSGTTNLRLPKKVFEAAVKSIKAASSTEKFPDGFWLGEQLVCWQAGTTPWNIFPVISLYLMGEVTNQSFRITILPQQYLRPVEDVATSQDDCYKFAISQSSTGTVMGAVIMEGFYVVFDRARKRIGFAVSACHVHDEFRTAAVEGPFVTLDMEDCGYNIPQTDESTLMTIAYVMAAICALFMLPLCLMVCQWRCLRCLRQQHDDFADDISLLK
row,IC50,Compound
1,0.11 to 1 µM,CC(=O)OCCNC(N)=NC(=O)Cn1c(-c2ccccc2)ccc1C12CC3CC(CC(C3)C1)C2 [Example 394]
2,1.1 to 5 µM,CCC(=O)c1ccc(-c2ccc(-c3ccccc3)n2CC(=O)NC(=N)N)cc1 [Example 447]
3,0.01 to 0.1 µM,N#CCCCCOc1ccc(-c2ccc(-c3ccccc3Cl)n2CC(=O)N=C(N)NCCCO)cc1 [Example 314]
4,0.11 to 1 µM,CCCCc1ccc(-c2ccc(-c3ccccc3)n2CC(=O)N=C(N)NCCCO)cc1 [Example 321]

# System: not given
# Assay: not given
# Conditions: not given
row,melting point,Compound
1,201 to 203 °C,"NC(N)=NC(=O)Cn1c(C(=O)c2ccccc2)ccc1-c1ccccc1 [Example 455, N″-[(2-benzoyl-5-phenyl-1H-pyrrol-1-yl)acetyl]guanidine]"
2,99 to 120 °C,"N=C(N)NC(=O)Cn1c(Cc2cccs2)ccc1-c1ccccc1 [Example 460, N-[amino(imino)methyl]-2-[2-phenyl-5-(thien-2-ylmethyl)-1H-pyrrol-1-yl]acetamide]"
3,155 to 158 °C,"N=C(N)NC(=O)Cn1c(Cc2ccccc2)ccc1-c1ccccc1 [Example 458, N-[(2-benzyl-5-phenyl-1H-pyrrol-1-yl)acetyl]guanidine]"
4,80 to 82 °C,"N=C(N)NC(=O)Cn1c(Cc2ccco2)ccc1-c1ccccc1 [Example 459, N-[amino(imino)methyl]-2-[2-(2-furylmethyl)-5-phenyl-1H-pyrrol-1-yl]acetamide]"
5,175 to 177 °C,N=C(N)NC(=O)Cn1c(C(=O)c2ccco2)ccc1-c1ccccc1 [Example 456]
